Among the data in patent US11963960B2 (Flash Therapeutics, LLC, priority 2020, dated 2024) are IC50 values, retold here.

The target in the first experiment is N-terminally GST-tagged HCK (75-526) (Homo sapiens (Human), UniProt P08631). The experiment is described as follows: HCK Kinase Assay (ProFluor Src-Family Kinase Assay). In kind it is biochemical.
N-terminally GST-tagged HCK (75-526), sequence (P08631 75-526): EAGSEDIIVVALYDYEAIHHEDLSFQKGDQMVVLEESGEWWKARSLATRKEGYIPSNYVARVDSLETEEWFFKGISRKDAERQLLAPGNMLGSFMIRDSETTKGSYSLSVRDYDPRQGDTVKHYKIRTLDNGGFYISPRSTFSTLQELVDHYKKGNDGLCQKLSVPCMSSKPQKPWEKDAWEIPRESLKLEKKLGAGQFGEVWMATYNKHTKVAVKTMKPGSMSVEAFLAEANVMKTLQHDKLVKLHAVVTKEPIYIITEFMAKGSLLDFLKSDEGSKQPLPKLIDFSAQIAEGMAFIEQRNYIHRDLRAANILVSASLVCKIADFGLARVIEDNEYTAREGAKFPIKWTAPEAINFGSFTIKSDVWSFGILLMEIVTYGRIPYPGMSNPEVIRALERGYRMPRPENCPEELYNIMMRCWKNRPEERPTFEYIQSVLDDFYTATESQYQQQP
Details: not given
How it is done:
The procedure of ProFluor Src-Family Kinase Assay (Promega, Cat. No. V1271) was then followed. To the reaction was added 5 μL Protease solution and the mixture was incubated for 60 minutes at room temperature (22-25° C.), followed by 5 μL Stabilizer solution. The fluorescence signal was read on an Envision multilabel plate reader (Perkin Elmer). The R110 was then read at an excitation wavelength of 485 nm and an emission wavelength of 530 nm. The AMC signal was read at an excitation wavelength of 355 nm and an emission wavelength of 460 nm.
`[2H]C([2H])([2H])N1CCN([C@H]2CC[C@H](n3cc(-c4ccc(Oc5ccccc5)cc4)c4c(N)ncnc43)CC2)CC1` (single isomer, unassigned) [Example 3, 7-((trans)-4-(4-(trideuteriomethyl)piperazin-1-yl)cyclohexyl)-5-(4-phenoxyphenyl)-7H-pyrrolo[2,3-d]pyrimidin-4-amine] registered an IC50 of less than 50 nM.

Turning to `[2H]C([2H])([2H])N1CCN([C@H]2CC[C@@H](n3cc(-c4ccc(Oc5ccccc5)cc4)c4c(N)ncnc43)CC2)CC1` (single isomer, unassigned) [Example 4, 7-((cis)-4-(4-(trideuteriomethyl)piperazin-1-yl)cyclohexyl)-5-(4-phenoxyphenyl)-7H-pyrrolo[2,3-d]pyrimidin-4-amine], the IC50 is 250 to 10000 nM. Molecule `[2H]C([2H])([2H])N1C([2H])([2H])C([2H])([2H])N([C@H]2CC[C@H](n3cc(-c4ccc(Oc5ccccc5)cc4)c4c(N)ncnc43)CC2)C([2H])([2H])C1([2H])[2H]` (single isomer, unassigned) [Example 5, 7-((trans)-4-(4-d3-methyl-d8-piperazin-1-yl)cyclohexyl)-5-(4-phenoxyphenyl)-7H-pyrrolo[2,3-d]pyrimidin-4-amine] showed an IC50 of 250 to 10000 nM. Still for that read-out and setting: the figure for `[2H]C([2H])([2H])N1C([2H])([2H])C([2H])([2H])N([C@H]2CC[C@@H](n3cc(-c4ccc(Oc5ccccc5)cc4)c4c(N)ncnc43)CC2)C([2H])([2H])C1([2H])[2H]` (single isomer, unassigned) [Example 6, 7-((cis)-4-(4-d3-methyl-d8-piperazin-1-yl)cyclohexyl)-5-(4-phenoxyphenyl)-7H-pyrrolo[2,3-d]pyrimidin-4-amine] is less than 50 nM; for `[2H]c1c([2H])c([2H])c(Oc2ccc(-c3cn([C@H]4CC[C@H](N5CCN(C)CC5)CC4)c4ncnc(N)c34)cc2)c([2H])c1[2H]` (single isomer, unassigned) [Example 104, 7-((trans)-4-(4-methylpiperazin-1-yl)cyclohexyl)-5-(4-pentadeuteriophenoxyphenyl)-7H-pyrrolo[2,3-d]pyrimidin-4-amine] it is less than 50 nM. The same measure, in the same setting: the same measure for `CN1CCN([C@H]2CC[C@@H](n3cc(-c4ccc(Oc5ccccc5)cc4)c4c(N)ncnc43)CC2)CC1` [Example 2, 7-((cis)-4-(4-methylpiperazin-1-yl)cyclohexyl)-5-(4-phenoxyphenyl)-7H-pyrrolo[2,3-d]pyrimidin-4-amine]: 50 to 250 nM.

Staying with this experiment, now noted: 50 μM ATP; read-out: HCK IC50.
Regarding `C[C@@H]1CN([C@H]2CC[C@H](n3nc(-c4ccc(Oc5ccccc5)cc4F)c4c(N)ncnc43)CC2)CCN1` [Example 17, 3-(2-fluoro-4-phenoxyphenyl)-1-((trans)-4-((R)-3-methylpiperazin-1-yl)cyclohexyl)-1H-pyrazolo[3,4-d]pyrimidin-4-amine], the IC50 is 16.5 nM.

Staying with this experiment, now noted: HCK inhibitory activity, 50 μM ATP; read-out: HCK Activity.
As to `Nc1ncnc2c1c(-c1ccc(Oc3ccccc3)cc1)cn2[C@H]1CC[C@H](N2CCC3(CCNC3)C2)CC1` (relative stereo) [Example 136, 7-((trans)-4-(2,7-diazaspiro[4.4]nonan-2-yl)cyclohexyl)-5-(4-phenoxyphenyl)-7H-pyrrolo[2,3-d]pyrimidin-4-amine], the IC50 is 50 to 250 nM.

`Nc1ncnc2c1c(-c1ccc(Oc3ccccc3)cc1)cn2[C@H]1CC[C@@H](N2CCC3(CCNC3)C2)CC1` (relative stereo) [Example 137, 7-((cis)-4-(2,7-diazaspiro[4.4]nonan-2-yl)cyclohexyl)-5-(4-phenoxyphenyl)-7H-pyrrolo[2,3-d]pyrimidin-4-amine]: the IC50 was in the range of 50 to 250 nM. Take `C[N+]1(C)CCN([C@H]2CC[C@H](n3nc(-c4ccc(Oc5ccccc5)cc4F)c4c(N)ncnc43)CC2)CC1` [Example 7, 4-((trans)-4-(4-amino-3-(2-fluoro-4-phenoxyphenyl)-1H-pyrazolo[3,4-d]pyrimidin-1-yl)cyclohexyl)-1,1-dimethylpiperazin-1-ium]: the IC50 is less than 50 nM. Still for that read-out and setting: the figure for `C[N+]1(C)CCN([C@H]2CC[C@@H](n3nc(-c4ccc(Oc5ccccc5)cc4F)c4c(N)ncnc43)CC2)CC1` [Example 8, 4-((cis)-4-(4-amino-3-(2-fluoro-4-phenoxyphenyl)-1H-pyrazolo[3,4-d]pyrimidin-1-yl)cyclohexyl)-1,1-dimethylpiperazin-1-ium] is 50 to 250 nM. Same read-out and setting: the figure for `CCN1CCN([C@H]2CC[C@H](n3nc(-c4ccc(Oc5ccccc5)cc4F)c4c(N)ncnc43)CC2)CC1` [Example 9, 1-((trans)-4-(4-ethylpiperazin-1-yl)cyclohexyl)-3-(2-fluoro-4-phenoxyphenyl)-1H-pyrazolo[3,4-d]pyrimidin-4-amine] is less than 50 nM. In the case of `Nc1ncnc2c1c(-c1ccc(Oc3ccccc3)cc1F)nn2[C@H]1CC[C@H](N2CCN(CCO)CC2)CC1` [Example 10, 2-(4-((trans)-4-(4-amino-3-(2-fluoro-4-phenoxyphenyl)-1H-pyrazolo[3,4-d]pyrimidin-1-yl)cyclohexyl)piperazin-1-yl)ethanol], the IC50 was less than 50 nM.

On to `Nc1ncnc2c1c(-c1ccc(Oc3ccccc3)cc1F)nn2[C@H]1CC[C@@H](N2CCN(CCO)CC2)CC1` [Example 11, 2-(4-((cis)-4-(4-amino-3-(2-fluoro-4-phenoxyphenyl)-1H-pyrazolo[3,4-d]pyrimidin-1-yl)cyclohexyl)piperazin-1-yl)ethanol], for which the IC50 is 50 to 250 nM. For `C[C@@H]1CN([C@H]2CC[C@H](n3cc(-c4ccc(Oc5ccccc5)cc4)c4c(N)ncnc43)CC2)CCN1` [Example 12, 7-((trans)-4-((R)-3-methylpiperazin-1-yl)cyclohexyl)-5-(4-phenoxyphenyl)-7H-pyrrolo[2,3-d]pyrimidin-4-amine], the IC50 fell in the range of 250 to 10000 nM. On the same count and under the same terms, the same measure for `C[C@@H]1CN([C@H]2CC[C@@H](n3cc(-c4ccc(Oc5ccccc5)cc4)c4c(N)ncnc43)CC2)CCN1` [Example 13, 7-((cis)-4-((R)-3-methylpiperazin-1-yl)cyclohexyl)-5-(4-phenoxyphenyl)-7H-pyrrolo[2,3-d]pyrimidin-4-amine]: less than 50 nM. Take `C[C@@H]1CN([C@H]2CC[C@H](n3nc(-c4ccc(Oc5ccccc5)cc4)c4c(N)ncnc43)CC2)CCN1` [Example 14, 1-((trans)-4-((R)-3-methylpiperazin-1-yl)cyclohexyl)-3-(4-phenoxyphenyl)-1H-pyrazolo[3,4-d]pyrimidin-4-amine]: the IC50 is less than 50 nM. With `C[C@@H]1CN([C@H]2CC[C@H](n3cc(-c4ccc(Oc5ccccc5)cc4F)c4c(N)ncnc43)CC2)CCN1` [Example 15, 5-(2-fluoro-4-phenoxyphenyl)-7-((trans)-4-((R)-3-methylpiperazin-1-yl)cyclohexyl)-7H-pyrrolo[2,3-d]pyrimidin-4-amine], the IC50 is less than 50 nM. With `C[C@@H]1CN([C@H]2CC[C@@H](n3cc(-c4ccc(Oc5ccccc5)cc4F)c4c(N)ncnc43)CC2)CCN1` [Example 16, 5-(2-fluoro-4-phenoxyphenyl)-7-((cis)-4-((R)-3-methylpiperazin-1-yl)cyclohexyl)-7H-pyrrolo[2,3-d]pyrimidin-4-amine], the IC50 is 50 to 250 nM. On the same count and under the same terms, the figure for `C[C@@H]1CN([C@H]2CC[C@H](n3nc(-c4ccc(Oc5ccccc5)cc4F)c4c(N)ncnc43)CC2)CCN1` [Example 17, 3-(2-fluoro-4-phenoxyphenyl)-1-((trans)-4-((R)-3-methylpiperazin-1-yl)cyclohexyl)-1H-pyrazolo[3,4-d]pyrimidin-4-amine] is less than 50 nM. The same measure, in the same setting: the same measure for `C[C@@H]1CN([C@H]2CC[C@@H](n3nc(-c4ccc(Oc5ccccc5)cc4F)c4c(N)ncnc43)CC2)CCN1` [Example 18, 3-(2-fluoro-4-phenoxyphenyl)-1-((cis)-4-((R)-3-methylpiperazin-1-yl)cyclohexyl)-1H-pyrazolo[3,4-d]pyrimidin-4-amine]: 250 to 10000 nM. Turning to `C[C@H]1CN([C@H]2CC[C@@H](n3cc(-c4ccc(Oc5ccccc5)cc4)c4c(N)ncnc43)CC2)CCN1` [Example 20, 7-((cis)-4-((S)-3-methylpiperazin-1-yl)cyclohexyl)-5-(4-phenoxyphenyl)-7H-pyrrolo [2,3-d]pyrimidin-4-amine], the IC50 was less than 50 nM. Still for that read-out and setting: the same measure for `CC1CN([C@H]2CC[C@H](n3cc(-c4ccc(Oc5ccccc5)cc4)c4c(N)ncnc43)CC2)CCN1C` (stereo partly drawn) [Example 22, 7-((trans)-4-(3,4-dimethylpiperazin-1-yl)cyclohexyl)-5-(4-phenoxyphenyl)-7H-pyrrolo[2,3-d]pyrimidin-4-amine]: less than 50 nM; for `C[C@H]1CN([C@H]2CC[C@H](n3cc(-c4ccc(Oc5ccccc5)cc4)c4c(N)ncnc43)CC2)CCN1C` [Example 23, 7-((trans)-4-((S)-3,4-dimethylpiperazin-1-yl)cyclohexyl)-5-(4-phenoxyphenyl)-7H-pyrrolo[2,3-d]pyrimidin-4-amine]: less than 50 nM; for `C[C@@H]1CN([C@H]2CC[C@@H](n3cc(-c4ccc(Oc5ccccc5)cc4)c4c(N)ncnc43)CC2)CCN1C` [Example 24, 7-((cis)-4-((R)-3,4-dimethylpiperazin-1-yl)cyclohexyl)-5-(4-phenoxyphenyl)-7H-pyrrolo[2,3-d]pyrimidin-4-amine]: less than 50 nM.

Turning to `C[C@@H]1CN([C@H]2CC[C@H](n3cc(-c4ccc(Oc5ccccc5)cc4)c4c(N)ncnc43)CC2)C[C@H](C)N1` [Example 25, 7-((trans)-4-((3S,5R)-3,5-dimethylpiperazin-1-yl)cyclohexyl)-5-(4-phenoxyphenyl)-7H-pyrrolo[2,3-d]pyrimidin-4-amine], the IC50 was in the range of 50 to 250 nM.

As for `C[C@@H]1CN([C@H]2CC[C@@H](n3cc(-c4ccc(Oc5ccccc5)cc4)c4c(N)ncnc43)CC2)C[C@H](C)N1` [Example 26, 7-((cis)-4-((3S,5R)-3,5-dimethylpiperazin-1-yl)cyclohexyl)-5-(4-phenoxyphenyl)-7H-pyrrolo[2,3-d]pyrimidin-4-amine], the IC50 is less than 50 nM. Same read-out and setting: the figure for `CN1CCN([C@H]2CC[C@H](n3cc(-c4ccc(Oc5ccccc5)cc4)c4c(N)ncnc43)CC2)CC1(C)C` [Example 27, 5-(4-phenoxyphenyl)-7-((trans)-4-(3,3,4-trimethylpiperazin-1-yl)cyclohexyl)-7H-pyrrolo[2,3-d] pyrimidin-4-amine] is less than 50 nM.
